For assay [1], the system named is Polistes dominulus worker antennae. The assay can be described thus: GC-EAD of cherry branch aeration samples. Here is the method: Lapin cherry branches with severely damaged cherries and leaves and undamaged or slightly damaged branches were collected from a cherry orchard at Creston, Canada, on Jul. 29, 2009, and were transported to the Sterling International, Inc. lab (Spokane, Wash.) on the same day and kept at 4° C. before aerations. Headspace volatiles from the cherry branches (damaged or undamaged) were sampled by a battery operated pump and a high density polyacetate oven bag (48.2×59.6 cm Reynolds® Oven Bag; Richmond, Va., USA) enclosure with one activated charcoal filter tube in the air inlet, on Jul. 30, 2009. The volatiles in the enclosure were trapped on one Porapak Q tube (50/80 mesh; 30 mg in Teflon tube: 3 mm×35 mm) for 2.5 hr (airflow 300 ml/min) and extracted with 1 ml redistilled pentane. Aeration samples of the cherry branches (damaged or undamaged/slightly damaged) were injected (3 μl) splitless into a Varian CP-3800 GC equipped with a polar column (HP-INNOWax; 30 m×0.53 mm×1.0 μm film thickness; […] Helium was used as the carrier gas, and the injector and detector temperatures were 250° C. and 300° C., respectively. Column temperature was 50° C. for 1 min, rising to 240° C. at 10° C./min, and then held for 10 min. The outlet for the EAD was held in a humidified air stream flowing at 0.5 m/sec over the antennal preparation. EAD recordings were made using silver wire-glass capillary electrodes filled with Beadle-Ephrussi Ringer on freshly cut antennae. The antennal signals were stored and analyzed on a PC equipped with a serial IDAC interface box and the program EAD ver. 2.5 (Syntech, Hilversum, The Netherlands). […] (See FIG. 2.) The same chemicals were also tested on beneficial insect antennae from Chrysopa oculata, Myrmeleon crudelis, Podisus maculiventris, and Hippodarnia convergens. (See […] active peaks in the aeration samples were identified by GC-MS on an HP 6890 GC series coupled with an HP 5973 Mass Selective Detector using the same type of GC column and conditions as described above. Compounds were identified by comparison of retention times with those of authentic standards and with mass spectra of standards.

The test system of assay [2] is P. dominulus workers antennae. The assay can be described thus: GC-EAD of synthetic mixture of known HIPVs. Further details: species or system Polistes dominulus. The conditions noted are these: 100 ng/μl each in hexane. As to the method: (§1) Aeration samples of the cherry branches (damaged or undamaged/slightly damaged) were injected (3 μl) splitless into a Varian CP-3800 GC equipped with a polar column (HP-INNOWax; 30 m×0.53 mm×1.0 μm film thickness; Agilent Technologies, Wilmington, Del., USA) and a 1:1 effluent splitter that allowed simultaneous flame ionization detection (FID) and electroantennographic detection (EAD) of the European paper wasp (Polistes dominulus) worker antennae to the separated volatile compounds. Helium was used as the carrier gas, and the injector and detector temperatures were 250° C. and 300° C., respectively. Column temperature was 50° C. for 1 min, rising to 240° C. at 10° C./min, and then held for 10 min. The outlet for the EAD was held in a humidified air stream flowing at 0.5 m/sec over the antennal preparation. EAD recordings were made using silver wire-glass capillary electrodes filled with Beadle-Ephrussi Ringer on freshly cut antennae. The antennal signals were stored and analyzed on a PC equipped with a serial IDAC interface box and the program EAD ver. 2.5 (Syntech, Hilversum, The Netherlands). In addition, GC-EAD responses to a synthetic mixture (100 ng/μl each) containing nine known HIPVs including cis-3-hexen-1-ol, cis-3-hexenyl acetate, trans-β-ocimene, (E)-4,8-dimethyl-1,3,7-nonatriene, linalool, methyl salicylate, geranyl acetate, trans-β-caryophyllene and trans-β-farnesene were tested on the P. dominulus workers. (See FIG. 2.) The same chemicals were also tested on beneficial insect antennae from Chrysopa oculata, Myrmeleon crudelis, Podisus maculiventris, and Hippodarnia convergens. (See FIG. 6.) Antennally active peaks in the aeration samples were identified by GC-MS on an HP 6890 GC series coupled with an HP 5973 Mass Selective Detector using the same type of GC column and conditions as described above. Compounds were identified by comparison of retention times with those of authentic standards and with mass spectra of standards.

Assay [3] relates to P. dominulus. Description: Field trapping Experiment 1, Rescue W•H•Y traps. It is filed as in vivo, Polistes dominulus. Conditions: Exp 1; HIPV added to WHY attractant in the top chamber, or WHY alone. Here is the method:
(§2) Three field trapping experiments were carried out during late July to early August 2009, in residential and woody areas around Spokane, Wash., USA, using the newly marketed Rescue® W•H•Y traps (www.rescue.com). As used herein, the W•H•Y trap is a trap in accordance with the description of United States Patent Application Publication No. 2009/0151228. The W•H•Y trap has a top chamber and a bottom chamber. The top chamber is baited with two attractants—one of which is a solid contained in a vial (2-methyl-1-butanol) and the other a liquid mixed with water (acetic acid), herein referred to as the W•H•Y top attractant. The bottom chamber is baited with a liquid attractant (heptyl butyrate) poured onto a cotton pad, herein referred to as the W•H•Y bottom attractant. Separation of the top and bottom attractants (otherwise antagonistic to each other when released from the same chamber) in two chambers was a design feature of this trap and creates two focal attraction sources from one trap for different species of wasps, hornets, and yellowjackets. Traps were hung 1.5-2.0 m above the ground on either the fence or tree branches ca. 5 m apart within each trap line. For each trapping experiment, six sets of traps were deployed with their initial trap positions within each set being randomized. To minimize positional effects and obtain more replications, wasp collections and trap re-randomization were carried out when ≧10-20 wasps were caught in the best trap. Each replicate lasted several days depending on wasp flight activity. Captured wasps were removed from the traps and kept in the zip-bags before taking back to the laboratory for recording of the species, gender status, and catch.
(§3) Experiment 3 (Aug. 5-13, 2009) was conducted to determine the potential behavioral activity of different doses of (E)-4,8-dimethyl-1,3,7-nonatriene alone. The individual (or different doses) HIPVs were loaded into either polyethylene bags or centrifuge tube type of dispensers, and released from the top of the W•H•Y trap chamber. W•H•Y trap attractants (both top and bottom or top only) alone and water (top chamber only) were included in the test as positive and blank controls, respectively. The dispenser types, loading and release rates of the tested semiochemicals are described in Tables 1, 2 and 3.
(§4) Trap catch data were converted to proportion (P) of total captured wasps within each replicate. Data were then transformed by arcsin√P to meet the assumptions of normality and homogeneity of variances for ANOVA. Means were compared by ANOVA followed by the Ryan-Einot-Gabriel-Welsh (REGW) multiple Q test (SPSS 16.0 for Windows) at α=0.05.

Assay [4] deals with V. atropilosa. It is filed as in vivo, Vespula atropilosa. Conditions: Exp 1; HIPV added to WHY attractant in the top chamber, or WHY alone.
Assay [5] relates to P. aurifer. Description: Field trapping Experiment 1, Rescue W•H•Y traps. It is filed as in vivo, Polistes aurifer. The conditions noted are these: Exp 1; HIPV added to WHY attractant in the top chamber, or WHY alone. As to the method:
as §2, §3, §4

Assay [6] has as its system V. consobrina. It is filed as in vivo, Vespula consobrina. Conditions: Exp 1; HIPV added to WHY attractant in the top chamber, or WHY alone. As to the method: as §2, with “catch. […]” for “catch.”
as §4

Assay [7] deals with V. pensylvanica. Description: Field trapping Experiment 1, Rescue W•H•Y traps. It is filed as in vivo, Vespula pensylvanica. The conditions noted are these: Exp 1; HIPV added to WHY attractant in the top chamber, or WHY alone. As to the method: as §2, §3, §4
Assay [8] concerns V. vulgaris. The assay can be described thus: Field trapping Experiment 1, Rescue W•H•Y traps. It is filed as in vivo, Vespula vulgaris. The conditions noted are these: Exp 1; HIPV added to WHY attractant in the top chamber, or WHY alone. Here is the method:
as §2, §3, §4

Assay [9] has as its system V. acadica. The assay can be described thus: Field trapping Experiment 1, Rescue W•H•Y traps. It is filed as in vivo, Vespula acadica. Conditions: Exp 1; HIPV added to WHY attractant in the top chamber, or WHY alone. As to the method:
as §2, §3, §4

Assay [10] concerns D. maculata. The assay can be described thus: Field trapping Experiment 1, Rescue W•H•Y traps. The conditions noted are these: Exp 1; HIPV added to WHY attractant in the top chamber, or WHY alone. It is filed as in vivo, Dolichovespula maculata. As to the method: as §2
(§5) Experiment 1 (Jul. 22-30, 2009) tested ten synthetic HIPV candidates [(E)-2-hexenal, (Z)-3-hexen-1-ol, (Z)-3-hexenyl acetate, cis-ocimene, linalool, methyl salicylate, geranyl acetate, trans-β-caryophyllene, trans-β-farnesene and (E)-4,8-dimethyl-1,3,7-nonatriene], including several paper wasp EAD-active compounds (see FIG. 2 for details), to determine their potential synergistic effect on the Rescue® W•H•Y trap attractants to paper wasps, yellowjackets, and hornets. Experiment 2 (Aug. 5-13, 2009) tested behavioral responses of the paper wasps and yellowjackets to the Rescue® W•H•Y trap attractants (top attractants only) and its combination with (E)-4,8-dimethyl-1,3,7-nonatriene, one of the EAD-active and behaviorally significant HIPVs, in a dose-response fashion. Experiment 3 (Aug. 5-13, 2009) was conducted to determine the potential behavioral activity of different doses of (E)-4,8-dimethyl-1,3,7-nonatriene alone. The individual (or different doses) HIPVs were loaded into either polyethylene bags or centrifuge tube type of dispensers, and released from the top of the W•H•Y trap chamber. W•H•Y trap attractants (both top and bottom or top only) alone and water (top chamber only) were included in the test as positive and blank controls, respectively. The dispenser types, loading and release rates of the tested semiochemicals are described in Tables 1, 2 and 3.
as §4

Assay [11] deals with D. arenaria. The assay can be described thus: Field trapping Experiment 1, Rescue W•H•Y traps. It is filed as in vivo, Dolichovespula arenaria. Conditions: Exp 1; HIPV added to WHY attractant in the top chamber, or WHY alone. Here is the method: as §2, §5, §4
Assay [12] concerns paper wasps and yellowjackets. Description: Field trapping bioassays, synergism with AA/2MB (summary). It is filed as in vivo. The conditions noted are these: at the doses tested. Here is the method: as §2
Experiment 3 (Aug. 5-13, 2009) was conducted to determine the potential behavioral activity of different doses of (E)-4,8-dimethyl-1,3,7-nonatriene alone. The individual (or different doses) HIPVs were loaded into either polyethylene bags or centrifuge tube type of dispensers, and released from the top of the W•H•Y trap chamber. […]

For assay [13], the system named is Hippodarnia convergens antennae. Description: GC-EAD of synthetic HIPVs on beneficial insect antennae. Conditions: FIG. 6. Here is the method:
as §1

Assay [14] relates to Podisus maculiventris antennae. The description is as above. Conditions: FIG. 6. As to the method: as §1
Assay [15] has as its system Chrysopa oculata antennae. Described as above. Conditions: FIG. 6. Here is the method: as §1
Assay [16] deals with Myrmeleon crudelis antennae. The description is as above. The conditions noted are these: FIG. 6. Here is the method: as §1
[17] abbreviates: aeration of undamaged or slightly damaged cherry branches.
Setting [18] is: aeration of severely damaged cherry branches, at current release rates.

With `CCC/C=C/COC(C)=O` [(E)-2-hexenyl acetate], the “EAD response of worker antennae” value in assay [1] (setting [17]) is given as “strongly responded”.
Turning to `C=C/C=C(/C)CCC=C(C)C` [(Z)-4,8-dimethyl-1,3,7-nonatriene], the “EAD response of worker antennae” value in assay [2] is recorded as “responded consistently”.
On to `CCC/C=C/C=O` [E-2-Hexenal, (E)-2-hexenal], for which, in [3], the “Total Paper Wasps P. dominulus” value stood at 19. In addition, the “Total Yellowjacket Catches V. atropilosa” value in assay [4] came to 3. Besides, in assay [5], the “Total Paper Wasps P. aurifer” value was found to be 8. Besides, the “Total Yellowjacket Catches V. consobrina” value in [6] is 0. In assay [7], the “Total Yellowjacket Catches V. pensylvanica” value is reported as 423. Also, the “Total Yellowjacket Catches V. vulgaris” value in assay [8] turned out to be 44. Moreover, the “Total Yellowjacket Catches V. acadica” value in assay [9] came out at 0. In addition, the “Total Yellowjacket Catches D. maculata” value in assay [10] came out at 2. Also, the “Total Yellowjacket Catches D. arenaria” value in assay [11] came out at 4.
`C=CC(C)(O)CCC=C(C)C` (stereo not shown) [Linalool, linalool]: in [3], the “Total Paper Wasps P. dominulus” value was found to be 46. Further, the “Total Yellowjacket Catches V. atropilosa” value in [4] is 0. In addition, the “EAD response of worker antennae” value in assay [2] is “responded consistently”. Besides, the “Total Paper Wasps P. aurifer” value in assay [5] is reported as 13. The “Total Yellowjacket Catches V. consobrina” value in assay [6] is 0. Besides, in assay [7], the “Total Yellowjacket Catches V. pensylvanica” value came to 291. Moreover, the “Total Yellowjacket Catches V. vulgaris” value in [8] is 32. Also, in [9], the “Total Yellowjacket Catches V. acadica” value is reported as 0. Besides, the “Total Yellowjacket Catches D. maculata” value in assay [10] was found to be 1. The “Total Yellowjacket Catches D. arenaria” value in [11] was 0.
Consider `CCCCCCCCC=O` [nonanal], for which the “EAD response of worker antennae” value is reported as “repeatable antennal response” in assay [1] (setting [18]) and “strongly responded” in assay [1] (setting [17]).
Take `Cc1ccc(C(C)C)cc1` [p-cymene]: in assay [1] (setting [18]), the “EAD response of worker antennae” value was “did not elicit significant EAD-responses”.
On the same count and under the same terms, the entry for `C=C/C(C)=C/C/C=C(\C)CCC=C(C)C` [α-farnesene] is “did not elicit significant EAD-responses”.
Consider `C=C/C(C)=C/CC=C(C)C` [β-ocimene, trans-β-ocimene], for which the “EAD response of worker antennae” value in assay [2] is reported as “responded consistently”. In addition, the “synergism of attraction to mixture of acetic acid and 2-methyl-1-butanol” value in assay [12] was “significantly synergize”. Further, the EAD-response result in [13], in assay [14], in [15] and in assay [16] was “strong EAD-responses” throughout.
